Columns and labels:
LasR = LasR assay (unstable gfp fused to the elastase promoter); assay type: cell-based; conditions: Pseudomonas aeruginosa, read-out: LasR (conc)
Experimental: Compounds of the present invention were also assayed using a LasR assay. The LasR assay provides a measurement of quorum sensing inhibition activity. The higher the percentage inhibition. […] In the LasR assay, an unstable gfp has been fused to the elastase promoter, so that the amount of Gfp is regulated by the QS system. The plasmid is put into Pseudomonas aeruginosa which makes its own AHL signals. The assay is performed by adding the compounds to be tested to the system at the beginning of the experiment, at different concentrations. Gfp expression is measured at different times during growth, ending at the 24 h time point. The percentage fluorescence was determined at the time point when the fluorescence reached its maximum in the control, usually around 11-12 h after inoculation.

E. coli biofilm = assay: Inhibition of biofilm formation in petri dishes, E. coli; assay type: cell-based; conditions: 1.5 ug/ml; percent reduction of control
Experimental: (§1) Biofilm formation in petri dishes was measured using the following protocol as a compromise between flow cells and microtitire plate based assays. The method increases the number of replicates (relative to flow cells) that can be tested while still generating a biofilm that has typical structures, such as microcolonies, which are important as differentiated structures within the biofilm. The method consists of placing a surface, such as a glass slide (for unattached compounds) or a modified plastic coupon (for covalently attached compounds) on the bottom of a sterile petri dish and adding growth medium. The bacteria are inoculated into the dish and allowed to incubate at the appropriate temperature at 50 rpm. The medium is replaced at 24 h and allowed to incubate a further 24 h, after which time, the slides are removed and rinsed to remove loosely attached cells. For monitoring biofilm formation on glass slides, the cells are either stained with a suitable fluorescent stain and are visualised using the confocal microscope and the biofilm (as % surface coverage) is quantified, or the biofilm is stained with crystal violet, washed thoroughly to remove excess stain, and subsequently destained and the absorbance at […] is measured to determine the amount of biofilm, as a function of crystal violet staining.

P. aeruginosa biofilm = assay: Inhibition of biofilm formation in petri dishes, P. aeruginosa; assay type: cell-based; conditions: 1 ug/ml; percent reduction of control
Experimental: as §1

S. epidermidis biofilm = assay: Inhibition of biofilm formation in petri dishes, S. epidermidis; assay type: cell-based; conditions: 0.32 ug/ml; percent reduction of control
Experimental: as §1

[1] = tested on: Staphylococcus epidermidis; assay: S. epidermidis growth inhibition (OD600 growth curves); assay type: cell-based; conditions: concentration of compound that significantly alters growth rate or final growth yield
Experimental: The growth inhibition of Staphylococcus epidermidis by the compounds of the present invention was determined by growing S. epidermidis in 96 well microtitre plates in Trypticase Soy Broth plus 0.5% glucose in a Wallac Victor2 microplate reader. Each compound was added to the wells at different concentrations and a no-compound control and a set of blank wells were also used. The OD600 was measured hourly.

V. fischeri luxRI system = assay: N-acylated homoserine lactone (AHL) quorum sensing assay, GFP reporter strain; assay type: cell-based, E. coli
Experimental: Compounds of the present invention were compared to compounds of the prior art in order using an AHL-quorum sensing assay which utilises a reporter strain that expresses Green Fluorescent Protein (GFP) in the presence of AHL signals. The assay is performed by measuring GFP output in the presence of the compound to be measured and comparing the output to a control. By using multiple samples at varying concentrations of compound and AHL, an inhibition index of compound activity can be generated. The inhibition index used in the present example is the relative amount of compound required to reduce GFP expression to 40% of the control. The inhibition index is termed AIC40. Lower values of AIC40 represent better inhibitors of the AHL quorum sensing system.
The reporter strain of bacterium used in this assay is E. coli into which the V. fischeri luxRI system has been engineered. A gfp gene is fused to the QS controlled luxI promoter as is described in (Andersen et al., 2001, and Andersen et al, 1998).
Measurement of AIC40 (ID40 at 3 nM OHHL)
Determination of the activity of compounds using the E. coli based luxRI construct was performed as follows.
In a 15 mL plastic tube, mix 3 mL of o.n. culture of the lux reporter strain with 12 mL fresh medium, incubate at 37° C. Label six tubes, 10, 20, two 50 and two 100. To each of the tubes, add OHHL (3-oxohexanoyl homoserine lactone) to a final concentration of 10, 20, 50, or 100 nM respectively in the AB medium (add enough medium to distribute across the appropriate number of wells). To the first row of the microplate (row A), add 200 ul of the OHHL/AB mixture. To the remaining rows (B-H) add 100 ul of the OHHL/AB mixture. To the first row (A) add compounds to be tested to the 200 ul mixture of OHHL/AB. Make a dilution series in the first 7 rows by transferring 100 μL from wells in row 1 to wells in row 2 and so on. Discard the remaining 100 μL from row 7. Add 100 μL diluted lux monitor to each well. Incubate the plate 2 hours at 37° C. and measure green fluorescence using the “Victor” plate reader.
Calculate ID40 for each column. To do this, calculate the relative activity in each well. […] Make a plot for each concentration of OHHL vs. the range of compound concentrations used. Calculate the amount of compound needed to lower the relative activity to 40%, this is termed inhibiting dose 40%, ID40. For each compound an inhibition index, AIC40, is found as follows: plot ID40 against its respective AHL concentration; AIC40 is the slope of the best straight line through the plotted points and origin.
The methodology for this assay is set out in 2(a) above.

`C=C1NC(=O)C=C1c1ccc(Br)cc1` [drawing 25] was tested, and the inhibition at 50 µg/mL (LasR) was 45%, the E. coli biofilm (E. coli biofilm) was 93% (1.5 ug/ml) and the P. aeruginosa biofilm (P. aeruginosa biofilm) was 32% (1 ug/ml). The S. epidermidis biofilm (S. epidermidis biofilm) was 41% (0.32 ug/ml), the minimal effective concentration [1] was 1 µg/mL and the “ID40 at 3 nM OHHL” value (V. fischeri luxRI system; Table 4, number in parentheses, amount of compound lowering relative activity to 40%) was 21 nM. The AIC40 (V. fischeri luxRI system; Table 4 comparative results, first number of the cell, lower = better) was 0.49 and the AIC40 (V. fischeri luxRI system; inhibition index: slope of ID40 against AHL concentration, lower = better inhibitor, NE = no effect) was 0.49.
